Data as given in patent US12673961B2 (Agios Pharmaceuticals, Inc., priority 2022, dated 2026).

molecular target: T1, human PAH with the R408W mutation (Homo sapiens, UniProt P00439, R408W); experiment: Cell Based Phenylalanine Flux Assay; conditions: A375 cells expressing human R408W PAH; 24 hrs compound incubation; 13C-Tyrosine by LC-MS; average where tested multiple times; read-out: AC50;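 also: Ten-point dose curve from 2-fold serial dilutions, run in duplicate at 0.5% DMSO final, tracer step used 20 µM sepiapterin and 800 µM labeled phenylalanine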
T1 construct: expressed in transfected cells
T1 sequence (P00439 1-452 R408W): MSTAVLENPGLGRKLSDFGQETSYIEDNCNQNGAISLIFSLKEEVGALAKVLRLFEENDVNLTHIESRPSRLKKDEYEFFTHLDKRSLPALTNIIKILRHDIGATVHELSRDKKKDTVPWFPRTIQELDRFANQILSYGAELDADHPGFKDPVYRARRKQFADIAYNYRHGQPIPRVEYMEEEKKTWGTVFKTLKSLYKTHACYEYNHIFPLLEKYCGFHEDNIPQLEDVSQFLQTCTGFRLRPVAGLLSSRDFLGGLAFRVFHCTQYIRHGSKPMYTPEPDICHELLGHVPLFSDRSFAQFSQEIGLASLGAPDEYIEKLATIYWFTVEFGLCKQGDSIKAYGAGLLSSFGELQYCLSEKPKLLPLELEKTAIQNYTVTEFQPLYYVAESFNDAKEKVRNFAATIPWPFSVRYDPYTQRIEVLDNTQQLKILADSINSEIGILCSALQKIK

AC50	Structure (SMILES)
< 0.5 µM	Cc1cccc2cc([C@@H]3c4nc[nH]c4CCN3C(=O)c3oc(C4(O)CC4)nc3C(F)F)nn12 [Example 1280, (S)-(4-(difluoromethyl)-2-(1-hydroxycyclopropyl)oxazol-5-yl)(4-(7-methylpyrazolo[1,5-a]pyridin-2-yl)-6,7-dihydro-1H-imidazo[4,5-c]pyridin-5(4H)-yl)methanone]
< 0.5 µM	COc1ccc(-c2nnc(C(=O)N3CCc4[nH]cnc4[C@H]3c3cc4c(Cl)cccn4n3)o2)nc1 [Example 1299, (S)-(4-(4-chloropyrazolo [1,5-a]pyridin-2-yl)-6,7-dihydro-1H-imidazo[4,5-c]pyridin-5(4H)-yl)(5-(5-methoxypyridin-2-yl)-1,3,4-oxadiazol-2-yl)methanone]
1 to 5 µM	Cc1ncccc1-c1nnc(C(=O)N2CCc3[nH]cnc3[C@@H]2c2cc3c(C(F)(F)F)cccn3n2)o1 [Example 1305, (R)-(5-(2-methylpyridin-3-yl)-1,3,4-oxadiazol-2-yl)(4-(4-(trifluoromethyl)pyrazolo [1,5-a]pyridin-2-yl)-6,7-dihydro-1H-imidazo[4,5-c]pyridin-5(4H)-yl)methanone]
< 0.5 µM	O=C(c1nnc(-c2ccccn2)o1)N1CCc2[nH]cnc2[C@H]1c1cc2c(C(F)F)cccn2n1 [Example 1314, (S)-(4-(4-(difluoromethyl)pyrazolo[1,5-a]pyridin-2-yl)-6,7-dihydro-1H-imidazo [4,5-c]pyridin-5(4H)-yl)(5-(pyridin-2-yl)-1,3,4-oxadiazol-2-yl)methanone]
1 to 5 µM	O=C(c1nnc(-c2ccccn2)o1)N1CCc2[nH]cnc2[C@@H]1c1cc2c(C(F)F)cccn2n1 [Example 1315, (R)-(4-(4-(difluoromethyl)pyrazolo[1,5-a]pyridin-2-yl)-6,7-dihydro-1H-imidazo [4,5-c]pyridin-5(4H)-yl)(5-(pyridin-2-yl)-1,3,4-oxadiazol-2-yl)methanone]
1 to 5 µM	Cc1cccc2cc([C@H]3c4nc[nH]c4CCN3C(=O)c3nnc(C4(C)CC4)o3)nn12 [Example 1318, (R)-(5-(1-methylcyclopropyl)-1,3,4-oxadiazol-2-yl)(4-(7-methylpyrazolo[1,5-a]pyridin-2-yl)-6,7-dihydro-1H-imidazo[4,5-c]pyridin-5(4H)-yl)methanone]
< 0.5 µM	COc1cccn2nc([C@@H]3c4nc[nH]c4CCN3C(=O)c3cnn4ccccc34)cc12 [Example 1326, (S)-(4-(4-methoxypyrazolo [1,5-a]pyridin-2-yl)-6,7-dihydro-1H-imidazo [4,5-c]pyridin-5(4H)-yl)(pyrazolo[1,5-a]pyridin-3-yl)methanone]
> 5 µM	Cc1ncccc1-c1nnc(C(=O)N2CCc3[nH]cnc3[C@@H]2c2cc3c(F)cccn3n2)o1 [Example 1329, (R)-(4-(4-fluoropyrazolo [1,5-a]pyridin-2-yl)-6,7-dihydro-1H-imidazo[4,5-c]pyridin-5(4H)-yl)(5-(2-methylpyridin-3-yl)-1,3,4-oxadiazol-2-yl)methanone]
< 0.5 µM	O=C(c1nnc(-c2cnccn2)o1)N1CCc2[nH]cnc2[C@H]1c1cc2c(Cl)cccn2n1 [Example 1332, (S)-(4-(4-chloropyrazolo [1,5-a]pyridin-2-yl)-6,7-dihydro-1H-imidazo[4,5-c]pyridin-5(4H)-yl)(5-(pyrazin-2-yl)-1,3,4-oxadiazol-2-yl)methanone]

The next lines start with the compound.

Structure (SMILES)	AC50
Cc1c(-c2nnc(C(=O)N3CCc4[nH]cnc4[C@H]3c3cc4cccc(C(F)(F)F)n4n3)o2)cnn1C [Example 1190, (S)-(5-(1,5-dimethyl-1H-pyrazol-4-yl)-1,3,4-oxadiazol-2-yl)(4-(7-(trifluoromethyl)pyrazolo[1,5-a]pyridin-2-yl)-6,7-dihydro-1H-imidazo [4,5-c]pyridin-5(4H)-yl)methanone]	0.5 to 1 µM
C[C@@H](O)c1nc(C(F)F)c(C(=O)N2CCc3[nH]cnc3[C@H]2c2cc3cccc(Cl)n3n2)o1 [Example 1196, ((S)-4-(7-chloropyrazolo [1,5-a]pyridin-2-yl)-6,7-dihydro-1H-imidazo[4,5-c]pyridin-5(4H)-yl)(4-(difluoromethyl)-2-((R)-1-hydroxyethyl)oxazol-5-yl)methanone]	< 0.5 µM
Cc1ncoc1C(=O)N1CCc2[nH]cnc2[C@H]1c1cc2cccc(C(F)(F)F)n2n1 [Example 1198]	0.5 to 1 µM
Cc1ncoc1C(=O)N1CCc2[nH]cnc2[C@@H]1c1cc2cccc(C(F)(F)F)n2n1 [Example 1199]	1 to 5 µM
COc1cccn2nc([C@H]3c4nc[nH]c4CCN3C(=O)c3nnc(-c4cnn(C)c4C)o3)cc12 [Example 1207, (R)-(5-(1,5-dimethyl-1H-pyrazol-4-yl)-1,3,4-oxadiazol-2-yl)(4-(4-methoxypyrazolo [1,5-a]pyridin-2-yl)-6,7-dihydro-1H-imidazo[4,5-c]pyridin-5(4H)-yl)methanone]	> 5 µM
Cc1c(-c2nnc(C(=O)N3CCc4[nH]cnc4[C@H]3c3cc4c(Cl)cccn4n3)o2)cnn1C [Example 1214, (S)-(4-(4-chloropyrazolo [1,5-a]pyridin-2-yl)-6,7-dihydro-1H-imidazo[4,5-c]pyridin-5(4H)-yl)(5-(1,5-dimethyl-1H-pyrazol-4-yl)-1,3,4-oxadiazol-2-yl)methanone]	< 0.5 µM
Cc1cccn2nc([C@@H]3c4nc[nH]c4CCN3C(=O)c3oc(C4(O)CC4)nc3C(F)F)cc12 [Example 1220, (S)-(4-(difluoromethyl)-2-(1-hydroxycyclopropyl)oxazol-5-yl)(4-(4-methylpyrazolo[1,5-a]pyridin-2-yl)-6,7-dihydro-1H-imidazo[4,5-c]pyridin-5(4H)-yl)methanone]	< 0.5 µM
Cn1cc(-c2nnc(C(=O)N3CCc4[nH]cnc4[C@H]3c3cc4cccc(F)n4n3)o2)cn1 [Example 1224, (S)-(4-(7-fluoropyrazolo[1,5-a]pyridin-2-yl)-6,7-dihydro-1H-imidazo[4,5-c]pyridin-5(4H)-yl)(5-(1-methyl-1H-pyrazol-4-yl)-1,3,4-oxadiazol-2-yl) methanone]	0.5 to 1 µM
O=C(c1nnc(C2CC2)o1)N1CCc2[nH]cnc2[C@H]1c1cc2cccc(F)n2n1 [Example 1246, (S)-(5-cyclopropyl-1,3,4-oxadiazol-2-yl)(4-(7-fluoropyrazolo[1,5-a]pyridin-2-yl)-6,7-dihydro-1H-imidazo[4,5-c]pyridin-5(4H)-yl)methanone]	0.5 to 1 µM
O=C(c1nnc(C2CC2)o1)N1CCc2[nH]cnc2[C@@H]1c1cc2cccc(F)n2n1 [Example 1247, (R)-(5-cyclopropyl-1,3,4-oxadiazol-2-yl)(4-(7-fluoropyrazolo[1,5-a]pyridin-2-yl)-6,7-dihydro-1H-imidazo[4,5-c]pyridin-5(4H)-yl)methanone]	1 to 5 µM
O=C(c1nnc(-c2ccncn2)o1)N1CCc2[nH]cnc2[C@H]1c1cc2c(F)cccn2n1 [Example 1258, (S)-(4-(4-fluoropyrazolo[1,5-a]pyridin-2-yl)-6,7-dihydro-1H-imidazo[4,5-c]pyridin-5(4H)-yl)(5-(pyrimidin-4-yl)-1,3,4-oxadiazol-2-yl)methanone]	0.5 to 1 µM
Cc1nc(C(C)(C)F)oc1C(=O)N1CCc2[nH]cnc2[C@H]1c1cc2cccc(C(F)(F)F)n2n1 [Example 1265, (S)-(2-(2-fluoropropan-2-yl)-4-methyloxazol-5-yl)(4-(7-(trifluoromethyl)pyrazolo [1,5-a]pyridin-2-yl)-6,7-dihydro-1H-imidazo[4,5-c]pyridin-5(4H)-yl)methanone]	< 0.5 µM
